Measured values reported in ChEMBL document CHEMBL5375983, “Discovery of YSR734: A Covalent HDAC Inhibitor with Cellular Activity in Acute Myeloid Leukemia and Duchenne Muscular Dystrophy” (J Med Chem, 2023).

Experiments:
[1] = test system: MV4-11; experiment: Induction of apoptosis in human MV4-11 cells assessed as late apoptotic cells at 1 uM measured after 6 hrs by annexin V-FITC/PI staining based FACS assay (reference value: 16.21%); type: functional
[2] = target: T1, Histone deacetylase 2 (Homo sapiens, UniProt Q92769); experiment: Inhibition of HDAC2 (unknown origin) using 6-carboxyfluorescein peptide as substrate preincubated with compound followed by substrate addition by electrophoretic mobility shift assay
[3] = target: T1, Histone deacetylase 2; experiment: Inhibition of HDAC2 (unknown origin) using 6-carboxyfluorescein peptide as substrate preincubated with compound for 2 hrs followed by substrate addition by electrophoretic mobility shift assay
[4] = target: T1, Histone deacetylase 2; experiment: Inhibition of HDAC2 (unknown origin) using 6-carboxyfluorescein peptide as substrate preincubated with compound for 6 hrs followed by substrate addition by electrophoretic mobility shift assay
[5] = target: Histone deacetylase 5 (Homo sapiens, UniProt Q9UQL6); experiment: Inhibition of HDAC5 (unknown origin) using 6-carboxyfluorescein peptide as substrate preincubated with compound for 6 hrs followed by substrate addition by electrophoretic mobility shift assay
[6] = target: T2, Protein deacetylase HDAC6 (Homo sapiens, UniProt Q9UBN7); experiment: Inhibition of full length recombinant human HDAC6 expressed in Sf9 cells using 6-carboxyfluorescein peptide as substrate preincubated with compound for 6 hrs followed by substrate addition and measured after 5 hrs by electrophoretic mobility shift assay
T2 sequence (Q9UBN7 whole entry): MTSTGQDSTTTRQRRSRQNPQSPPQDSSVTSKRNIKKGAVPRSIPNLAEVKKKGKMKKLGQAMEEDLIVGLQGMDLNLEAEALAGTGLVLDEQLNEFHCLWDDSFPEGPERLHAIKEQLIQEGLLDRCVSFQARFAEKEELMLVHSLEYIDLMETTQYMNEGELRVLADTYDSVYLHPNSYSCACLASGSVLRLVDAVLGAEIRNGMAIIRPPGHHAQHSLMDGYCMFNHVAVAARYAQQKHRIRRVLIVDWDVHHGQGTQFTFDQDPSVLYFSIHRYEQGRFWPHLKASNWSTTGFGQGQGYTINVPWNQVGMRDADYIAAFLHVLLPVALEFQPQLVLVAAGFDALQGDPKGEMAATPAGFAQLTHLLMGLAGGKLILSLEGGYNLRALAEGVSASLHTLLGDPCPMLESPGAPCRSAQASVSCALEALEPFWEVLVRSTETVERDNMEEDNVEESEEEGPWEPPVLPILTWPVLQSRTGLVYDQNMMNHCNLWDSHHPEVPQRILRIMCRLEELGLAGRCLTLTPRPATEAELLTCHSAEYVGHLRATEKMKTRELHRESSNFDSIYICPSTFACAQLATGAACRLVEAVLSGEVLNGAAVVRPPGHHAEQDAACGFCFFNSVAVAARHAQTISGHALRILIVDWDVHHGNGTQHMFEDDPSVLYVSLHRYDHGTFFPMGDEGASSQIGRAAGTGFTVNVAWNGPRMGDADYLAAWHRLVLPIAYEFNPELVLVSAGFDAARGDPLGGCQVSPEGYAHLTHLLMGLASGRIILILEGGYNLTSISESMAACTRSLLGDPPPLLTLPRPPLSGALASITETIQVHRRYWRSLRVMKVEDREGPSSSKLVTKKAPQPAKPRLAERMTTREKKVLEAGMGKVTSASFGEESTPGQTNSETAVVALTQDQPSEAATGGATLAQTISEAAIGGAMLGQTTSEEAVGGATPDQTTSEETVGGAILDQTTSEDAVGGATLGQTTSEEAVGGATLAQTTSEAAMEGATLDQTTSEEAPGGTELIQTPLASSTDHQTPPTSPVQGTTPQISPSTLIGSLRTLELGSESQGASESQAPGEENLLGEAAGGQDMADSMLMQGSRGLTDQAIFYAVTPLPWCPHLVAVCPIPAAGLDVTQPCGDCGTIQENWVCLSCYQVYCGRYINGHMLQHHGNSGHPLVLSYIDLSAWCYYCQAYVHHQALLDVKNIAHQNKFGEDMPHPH

[7] = target: T3, Histone deacetylase 7 (Homo sapiens, UniProt Q8WUI4); experiment: Inhibition of HDAC7 (unknown origin) using 6-carboxyfluorescein peptide as substrate preincubated with compound for 6 hrs followed by substrate addition by electrophoretic mobility shift assay
T3 sequence (Q8WUI4 whole entry): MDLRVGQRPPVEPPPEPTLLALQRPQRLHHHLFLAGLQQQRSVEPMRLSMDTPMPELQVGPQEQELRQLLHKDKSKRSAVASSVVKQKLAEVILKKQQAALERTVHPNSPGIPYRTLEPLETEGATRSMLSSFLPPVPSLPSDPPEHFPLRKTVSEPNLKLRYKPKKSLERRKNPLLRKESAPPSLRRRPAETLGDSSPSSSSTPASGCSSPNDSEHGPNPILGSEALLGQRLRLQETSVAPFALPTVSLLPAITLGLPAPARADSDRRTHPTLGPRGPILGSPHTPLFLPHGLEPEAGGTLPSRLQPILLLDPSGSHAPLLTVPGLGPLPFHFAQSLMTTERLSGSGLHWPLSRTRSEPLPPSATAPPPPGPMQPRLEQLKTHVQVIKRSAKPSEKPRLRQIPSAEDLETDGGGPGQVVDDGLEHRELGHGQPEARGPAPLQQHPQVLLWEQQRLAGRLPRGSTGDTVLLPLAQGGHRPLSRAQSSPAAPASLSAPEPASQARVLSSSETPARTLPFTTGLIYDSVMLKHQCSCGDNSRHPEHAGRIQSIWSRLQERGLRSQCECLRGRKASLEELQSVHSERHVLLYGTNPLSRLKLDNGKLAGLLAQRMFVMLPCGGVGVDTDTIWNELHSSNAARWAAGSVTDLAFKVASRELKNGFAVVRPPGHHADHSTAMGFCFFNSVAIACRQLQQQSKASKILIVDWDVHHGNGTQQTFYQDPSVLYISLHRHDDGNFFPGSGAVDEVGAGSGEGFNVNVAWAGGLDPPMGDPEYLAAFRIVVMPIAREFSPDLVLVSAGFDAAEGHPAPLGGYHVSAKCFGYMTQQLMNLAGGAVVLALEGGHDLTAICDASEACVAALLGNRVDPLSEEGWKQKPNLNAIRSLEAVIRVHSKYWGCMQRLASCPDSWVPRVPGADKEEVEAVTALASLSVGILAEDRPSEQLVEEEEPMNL

[8] = target: T4, Histone deacetylase 11 (Homo sapiens, UniProt Q96DB2); experiment: Inhibition of full length recombinant human HDAC11 expressed in Sf9 cells using 6-carboxyfluorescein peptide as substrate preincubated with compound for 6 hrs followed by substrate addition and measured after 17 hrs by electrophoretic mobility shift assay
T4 sequence (Q96DB2 whole entry): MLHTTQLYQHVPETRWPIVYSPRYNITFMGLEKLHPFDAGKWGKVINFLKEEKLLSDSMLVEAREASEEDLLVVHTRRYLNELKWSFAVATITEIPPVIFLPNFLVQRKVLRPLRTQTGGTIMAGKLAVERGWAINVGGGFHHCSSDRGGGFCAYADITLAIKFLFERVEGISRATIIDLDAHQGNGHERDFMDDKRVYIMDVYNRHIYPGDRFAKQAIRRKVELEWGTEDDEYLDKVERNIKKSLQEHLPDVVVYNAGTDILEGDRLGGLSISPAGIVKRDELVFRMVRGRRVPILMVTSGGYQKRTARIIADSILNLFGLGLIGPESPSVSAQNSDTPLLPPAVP

T1 sequence (Q92769 whole entry): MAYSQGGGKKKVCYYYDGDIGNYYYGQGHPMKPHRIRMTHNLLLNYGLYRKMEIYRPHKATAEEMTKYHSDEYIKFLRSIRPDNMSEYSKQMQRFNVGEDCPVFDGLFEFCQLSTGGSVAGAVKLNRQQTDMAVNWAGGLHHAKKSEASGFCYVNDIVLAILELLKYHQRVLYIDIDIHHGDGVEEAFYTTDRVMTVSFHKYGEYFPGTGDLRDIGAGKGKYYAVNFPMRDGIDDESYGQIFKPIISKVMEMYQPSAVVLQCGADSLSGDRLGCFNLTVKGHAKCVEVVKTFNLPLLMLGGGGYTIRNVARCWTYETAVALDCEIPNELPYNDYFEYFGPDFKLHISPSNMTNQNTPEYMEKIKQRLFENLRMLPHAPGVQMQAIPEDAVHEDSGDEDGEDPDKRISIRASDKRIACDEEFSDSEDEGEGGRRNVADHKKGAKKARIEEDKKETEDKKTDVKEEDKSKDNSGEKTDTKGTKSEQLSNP
Histone deacetylase 5, sequence (Q9UQL6 whole entry): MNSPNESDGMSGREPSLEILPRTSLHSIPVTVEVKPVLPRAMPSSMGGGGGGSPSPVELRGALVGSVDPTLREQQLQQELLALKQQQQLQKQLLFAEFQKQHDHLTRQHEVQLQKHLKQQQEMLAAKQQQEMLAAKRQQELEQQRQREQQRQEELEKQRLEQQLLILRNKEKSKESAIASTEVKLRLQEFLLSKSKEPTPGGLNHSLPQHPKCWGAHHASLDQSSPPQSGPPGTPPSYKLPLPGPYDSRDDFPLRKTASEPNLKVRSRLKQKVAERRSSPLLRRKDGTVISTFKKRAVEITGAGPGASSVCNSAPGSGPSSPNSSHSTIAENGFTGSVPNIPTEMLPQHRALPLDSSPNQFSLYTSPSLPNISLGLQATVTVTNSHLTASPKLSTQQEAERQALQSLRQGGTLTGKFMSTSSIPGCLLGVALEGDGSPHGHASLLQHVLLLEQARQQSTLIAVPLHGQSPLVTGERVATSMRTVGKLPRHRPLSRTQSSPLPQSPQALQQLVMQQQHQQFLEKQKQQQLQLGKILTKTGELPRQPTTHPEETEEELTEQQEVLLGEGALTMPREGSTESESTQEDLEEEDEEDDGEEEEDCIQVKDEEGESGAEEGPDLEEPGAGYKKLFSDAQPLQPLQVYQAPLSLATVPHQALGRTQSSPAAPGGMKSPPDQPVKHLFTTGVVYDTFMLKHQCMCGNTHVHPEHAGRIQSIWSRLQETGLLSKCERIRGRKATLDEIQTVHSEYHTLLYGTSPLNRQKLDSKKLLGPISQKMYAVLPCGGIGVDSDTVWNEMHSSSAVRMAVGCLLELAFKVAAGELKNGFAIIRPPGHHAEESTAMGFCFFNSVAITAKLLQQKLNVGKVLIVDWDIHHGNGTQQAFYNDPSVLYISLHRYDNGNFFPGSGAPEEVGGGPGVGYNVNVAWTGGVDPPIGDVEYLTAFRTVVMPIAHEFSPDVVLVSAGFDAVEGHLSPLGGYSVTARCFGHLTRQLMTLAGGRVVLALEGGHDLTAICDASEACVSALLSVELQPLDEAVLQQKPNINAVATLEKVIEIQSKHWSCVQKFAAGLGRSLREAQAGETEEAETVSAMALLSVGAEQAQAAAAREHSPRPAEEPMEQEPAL

## Nc1ccccc1NC(=O)c1ccc(CNC(=O)OC2CCN(S(=O)(=O)c3c(F)c(F)c(F)c(F)c3F)CC2)cc1
[1]
  Activity: 48.31%
[2]
  IC50: 808 nM
[3]
  IC50: 327 nM
[4]
  IC50: 154 nM
[5]
  IC50: > 10000 nM
[6]
  IC50: > 10000 nM
[7]
  IC50: > 10000 nM
[8]
  IC50: > 2000 nM
